# ChEMBL document CHEMBL5625247, “Tetrahydro-β-carboline derivatives as potent histone deacetylase 6 inhibitors with broad-spectrum antiproliferative activity” (Eur J Med Chem, 2023)
# pIC50: −log10 of the molar value.
# Legend:
# TK-10 = experiment: Antiproliferative activity against human TK-10 cells assessed as cell growth inhibition incubated for 72 hrs by alamar blue dye based assay; format: functional
# OVCAR-3 = experiment: Antiproliferative activity against human OVCAR-3 cells assessed as cell growth inhibition incubated for 72 hrs by alamar blue dye based assay; format: functional
# SF-295 = experiment: Antiproliferative activity against human SF-295 cells assessed as cell growth inhibition incubated for 72 hrs by alamar blue dye based assay; format: functional
# M14 = experiment: Antiproliferative activity against human M14 cells assessed as cell growth inhibition incubated for 72 hrs by alamar blue dye based assay; format: functional
# HOP-62 = experiment: Antiproliferative activity against human HOP-62 cells assessed as cell growth inhibition incubated for 72 hrs by alamar blue dye based assay; format: functional
# NCI/ADR-RES = experiment: Antiproliferative activity against human NCI-ADR-RES cells assessed as cell growth inhibition incubated for 72 hrs by alamar blue dye based assay; format: functional
# Histone deacetylase 1 = Histone deacetylase 1 (Homo sapiens, UniProt Q13547); experiment: Inhibition of HDAC1 (unknown origin) expressed in baculovirus infected in Sf9 cells using RHKKAc as substrate preincubated for 5 to 10 mins followed by substrate addition measured after 2 hrs by fluorescence based assay
# SW-620 = experiment: Antiproliferative activity against human SW620 cells assessed as cell growth inhibition incubated for 72 hrs by alamar blue dye based assay; format: functional
# A498 = experiment: Antiproliferative activity against human A498 cells assessed as cell growth inhibition incubated for 72 hrs by alamar blue dye based assay; format: functional
# HCT-116 = experiment: Antiproliferative activity against human HCT-116 cells assessed as cell growth inhibition incubated for 72 hrs by alamar blue dye based assay; format: functional
# 786-0 = experiment: Antiproliferative activity against human 786-0 cells assessed as cell growth inhibition incubated for 72 hrs by alamar blue dye based assay; format: functional
# SK-MEL-2 = experiment: Antiproliferative activity against human SK-MEL-2 cells assessed as cell growth inhibition incubated for 72 hrs by alamar blue dye based assay; format: functional
# MDA-MB-468 = experiment: Antiproliferative activity against human MDA-MB-468 cells assessed as cell growth inhibition incubated for 72 hrs by alamar blue dye based assay; format: functional
# MCF7 = experiment: Antiproliferative activity against human MCF7 cells assessed as cell growth inhibition incubated for 72 hrs by alamar blue dye based assay; format: functional
# NCI-H522 = experiment: Antiproliferative activity against human NCI-H522 cells assessed as cell growth inhibition incubated for 72 hrs by alamar blue dye based assay; format: functional
# OVCAR-4 = experiment: Antiproliferative activity against human OVCAR-4 cells assessed as cell growth inhibition incubated for 72 hrs by alamar blue dye based assay; format: functional
# UACC-257 = experiment: Antiproliferative activity against human UACC-257 cells assessed as cell growth inhibition incubated for 72 hrs by alamar blue dye based assay; format: functional
# SF-539 = experiment: Antiproliferative activity against human SF-539 cells assessed as cell growth inhibition incubated for 72 hrs by alamar blue dye based assay; format: functional
# Malme-3M = experiment: Antiproliferative activity against human Malme-3M cells assessed as cell growth inhibition incubated for 72 hrs by alamar blue dye based assay; format: functional
# SK-MEL-5 = experiment: Antiproliferative activity against human SK-MEL-5 cells assessed as cell growth inhibition incubated for 72 hrs by alamar blue dye based assay; format: functional
# UO-31 = experiment: Antiproliferative activity against human UO-31 cells assessed as cell growth inhibition incubated for 72 hrs by alamar blue dye based assay; format: functional
# CAKI-1 = experiment: Antiproliferative activity against human CAKI-1 cells assessed as cell growth inhibition incubated for 72 hrs by alamar blue dye based assay; format: functional
# SF-268 = experiment: Antiproliferative activity against human SF-268 cells assessed as cell growth inhibition incubated for 72 hrs by alamar blue dye based assay; format: functional
# CCRF-CEM = experiment: Antiproliferative activity against human CCRF-CEM cells assessed as cell growth inhibition incubated for 72 hrs by alamar blue dye based assay; format: functional
# U-251 = experiment: Antiproliferative activity against human U-251 cells assessed as cell growth inhibition incubated for 72 hrs by alamar blue dye based assay; format: functional
# A549 = experiment: Antiproliferative activity against human A549 cells assessed as cell growth inhibition incubated for 72 hrs by alamar blue dye based assay; format: functional
# SN12C = experiment: Antiproliferative activity against human SN12C cells assessed as cell growth inhibition incubated for 72 hrs by alamar blue dye based assay; format: functional
# HCT-15 = experiment: Antiproliferative activity against human HCT-15 cells assessed as cell growth inhibition incubated for 72 hrs by alamar blue dye based assay; format: functional
# HCC 2998 = experiment: Antiproliferative activity against human HCC 2998 cells assessed as cell growth inhibition incubated for 72 hrs by alamar blue dye based assay; format: functional
# T47D = experiment: Antiproliferative activity against human T47D cells assessed as cell growth inhibition incubated for 72 hrs by alamar blue dye based assay; format: functional
# NCI-H460 = experiment: Antiproliferative activity against human NCI-H460 cells assessed as cell growth inhibition incubated for 72 hrs by alamar blue dye based assay; format: functional
# SK-OV-3 = experiment: Antiproliferative activity against human SK-OV-3 cells assessed as cell growth inhibition incubated for 72 hrs by alamar blue dye based assay; format: functional
# KM12 = experiment: Antiproliferative activity against human KM12 cells assessed as cell growth inhibition incubated for 72 hrs by alamar blue dye based assay; format: functional
# NCI-H322M = experiment: Antiproliferative activity against human NCI-H322M cells assessed as cell growth inhibition incubated for 72 hrs by alamar blue dye based assay; format: functional
# UACC-62 = experiment: Antiproliferative activity against human UACC-62 cells assessed as cell growth inhibition incubated for 72 hrs by alamar blue dye based assay; format: functional
# BT-549 = experiment: Antiproliferative activity against human BT-549 cells assessed as cell growth inhibition incubated for 72 hrs by alamar blue dye based assay; format: functional
# SNB-19 = experiment: Antiproliferative activity against human SNB-19 cells assessed as cell growth inhibition incubated for 72 hrs by alamar blue dye based assay; format: functional
# RXF 393 = experiment: Antiproliferative activity against human RXF 393 cells assessed as cell growth inhibition incubated for 72 hrs by alamar blue dye based assay; format: functional
# LOX IMVI = experiment: Antiproliferative activity against human LOX IMVI cells assessed as cell growth inhibition incubated for 72 hrs by alamar blue dye based assay; format: functional
# SK-MEL-28 = experiment: Antiproliferative activity against human SK-MEL-28 cells assessed as cell growth inhibition incubated for 72 hrs by alamar blue dye based assay; format: functional
# ACHN = experiment: Antiproliferative activity against human ACHN cells assessed as cell growth inhibition incubated for 72 hrs by alamar blue dye based assay; format: functional
# COLO 205 = experiment: Antiproliferative activity against human COLO 205 cells assessed as cell growth inhibition incubated for 72 hrs by alamar blue dye based assay; format: functional
# PC-3 = experiment: Antiproliferative activity against human PC-3 cells assessed as cell growth inhibition incubated for 72 hrs by alamar blue dye based assay; format: functional
# EKVX = experiment: Antiproliferative activity against human EKVX cells assessed as cell growth inhibition incubated for 72 hrs by alamar blue dye based assay; format: functional
# K562 = experiment: Antiproliferative activity against human K562 cells assessed as cell growth inhibition incubated for 72 hrs by alamar blue dye based assay; format: functional
# MDA-MB-435 = experiment: Antiproliferative activity against human MDA-MB-435 cells assessed as cell growth inhibition incubated for 72 hrs by alamar blue dye based assay; format: functional
# OVCAR-5 = experiment: Antiproliferative activity against human OVCAR-5 cells assessed as cell growth inhibition incubated for 72 hrs by alamar blue dye based assay; format: functional
# Histone deacetylase 1, sequence (Q13547 whole entry): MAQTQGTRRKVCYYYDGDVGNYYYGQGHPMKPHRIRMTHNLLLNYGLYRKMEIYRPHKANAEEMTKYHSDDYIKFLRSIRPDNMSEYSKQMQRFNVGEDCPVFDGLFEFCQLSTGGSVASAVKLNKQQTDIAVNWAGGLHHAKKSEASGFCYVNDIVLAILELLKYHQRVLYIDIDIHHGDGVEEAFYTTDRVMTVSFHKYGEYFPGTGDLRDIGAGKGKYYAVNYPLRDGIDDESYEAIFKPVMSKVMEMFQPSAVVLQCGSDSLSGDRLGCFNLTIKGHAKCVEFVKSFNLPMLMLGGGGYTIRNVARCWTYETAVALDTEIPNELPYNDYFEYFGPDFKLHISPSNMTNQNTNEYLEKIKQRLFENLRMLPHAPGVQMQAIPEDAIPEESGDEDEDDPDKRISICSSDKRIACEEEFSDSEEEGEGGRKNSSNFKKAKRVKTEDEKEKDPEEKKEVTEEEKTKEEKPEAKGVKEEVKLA
smiles,measurement,setting,value
O=C(NO)c1ccc(CNC(=O)[C@H]2Cc3c([nH]c4ccccc34)[C@H](c3ccc(Cl)cc3)N2)cc1,GI50,TK-10,1510 nM
same,GI50,OVCAR-3,1230 nM
same,GI50,SF-295,1810 nM
same,GI50,M14,2200 nM
same,GI50,HOP-62,1270 nM
same,GI50,NCI/ADR-RES,3350 nM
same,pIC50,Histone deacetylase 1,7.21
same,GI50,SW-620,687 nM
same,GI50,A498,2060 nM
same,GI50,HCT-116,609 nM
same,GI50,786-0,3710 nM
same,GI50,SK-MEL-2,2770 nM
same,GI50,MDA-MB-468,380 nM
same,GI50,MCF7,874 nM
same,GI50,NCI-H522,584 nM
same,GI50,OVCAR-4,3730 nM
same,GI50,UACC-257,1230 nM
same,GI50,SF-539,1140 nM
same,GI50,Malme-3M,410 nM
same,GI50,SK-MEL-5,721 nM
same,GI50,UO-31,2640 nM
same,GI50,CAKI-1,2330 nM
same,GI50,SF-268,2920 nM
same,GI50,CCRF-CEM,617 nM
same,GI50,U-251,1210 nM
same,GI50,A549,3970 nM
same,GI50,SN12C,2410 nM
same,GI50,HCT-15,4260 nM
same,GI50,HCC 2998,605 nM
same,GI50,T47D,600 nM
same,GI50,NCI-H460,1020 nM
same,GI50,SK-OV-3,2010 nM
same,GI50,KM12,2360 nM
same,GI50,NCI-H322M,1620 nM
same,GI50,UACC-62,538 nM
same,GI50,BT-549,4930 nM
same,GI50,SNB-19,2260 nM
same,GI50,RXF 393,455 nM
same,GI50,LOX IMVI,1090 nM
same,GI50,SK-MEL-28,878 nM
same,GI50,ACHN,3050 nM
same,GI50,COLO 205,719 nM
same,GI50,PC-3,1760 nM
same,GI50,EKVX,2650 nM
same,GI50,K562,720 nM
same,GI50,MDA-MB-435,959 nM
same,GI50,OVCAR-5,456 nM
COc1ccc(CN2[C@@H](C(=O)NCc3ccc(C(=O)NO)cc3)Cc3c([nH]c4ccccc34)[C@@H]2C2CC2)cc1,GI50,TK-10,3170 nM
same,GI50,OVCAR-3,3410 nM
same,GI50,SF-295,2920 nM
same,GI50,M14,4070 nM
same,GI50,HOP-62,3480 nM
same,GI50,NCI/ADR-RES,4050 nM
same,pIC50,Histone deacetylase 1,6.77
same,GI50,SW-620,2260 nM
same,GI50,A498,2770 nM
same,GI50,HCT-116,2080 nM
same,GI50,786-0,3980 nM
same,GI50,SK-MEL-2,4110 nM
same,GI50,MDA-MB-468,1000 nM
same,GI50,MCF7,2330 nM
same,GI50,NCI-H522,965 nM
same,GI50,OVCAR-4,4740 nM
same,GI50,UACC-257,2390 nM
same,GI50,SF-539,2480 nM
same,GI50,Malme-3M,847 nM
same,GI50,SK-MEL-5,2600 nM
same,GI50,UO-31,3000 nM
same,GI50,CAKI-1,2400 nM
same,GI50,SF-268,4400 nM
same,GI50,CCRF-CEM,996 nM
same,GI50,U-251,2660 nM
same,GI50,A549,3540 nM
same,GI50,SN12C,3860 nM
same,GI50,HCT-15,3750 nM
same,GI50,HCC 2998,2600 nM
same,GI50,T47D,3820 nM
same,GI50,NCI-H460,3140 nM
same,GI50,SK-OV-3,2870 nM
same,GI50,KM12,3510 nM
same,GI50,NCI-H322M,4250 nM
same,GI50,UACC-62,1550 nM
same,GI50,BT-549,4990 nM
same,GI50,SNB-19,2890 nM
same,GI50,RXF 393,797 nM
same,GI50,LOX IMVI,2370 nM
same,GI50,SK-MEL-28,1980 nM
same,GI50,ACHN,3520 nM
same,GI50,COLO 205,3470 nM
same,GI50,PC-3,3120 nM
same,GI50,EKVX,3200 nM
same,GI50,K562,1670 nM
same,GI50,MDA-MB-435,638 nM
same,GI50,OVCAR-5,1870 nM
